Laboratory results published in ChEMBL document CHEMBL4049405, “Investigation on cellular uptake and pharmacodynamics of DOCK2-inhibitory peptides conjugated with cell-penetrating peptides” (Bioorg Med Chem, 2017).
Calls of active or inactive are those of the source. The calls are words filed in the database; no cut-off is given here. Positions of bridges follow the written chain, without caps; N, C: chain ends. Residues, ends and D or L forms follow the SMILES beside them.

What was measured:
[1] = Antimigratory activity against human Mino cells assessed as inhibition of S1P stimulated cell migration at 3.3 uM measured after 30 mins by Cell-titer Glo assay relative to control; assay type: functional; settings: 0.5 h
[2] = biological target: T1, Dedicator of cytokinesis protein 2 (Homo sapiens, UniProt Q92608); assay: Inhibition of Rac1 binding to biotinylated DOCK2 (unknown origin) by ELISA
[3] = (§1) Antimigratory activity against human Mino cells assessed as inhibition of S1P stimulated cell migration at 10 uM measured after 30 mins by Cell-titer Glo assay relative to control; assay type: functional; settings: 0.5 h
Mino [4] = assay: Antimigratory activity against human Mino cells assessed as inhibition of S1P stimulated cell migration at 1.1 uM measured after 30 mins by Cell-titer Glo assay; assay type: functional, cell-based
Mino [5] = assay: as §1; assay type: functional
[6] = biological target: T1, Dedicator of cytokinesis protein 2; assay: Inhibition of Rac1 binding to DOCK2 (unknown origin) by ELISA
[7] = biological target: T1, Dedicator of cytokinesis protein 2; assay: Inhibition of DOCK2 (unknown origin) GEF activity
[8] = biological target: T1, Dedicator of cytokinesis protein 2; assay: Inhibition of GST-fused Rac1 (unknown origin) binding to recombinant N-terminal trigger factor/C-terminal SBP-tagged DOCK2 DHR-2 binding domain (unknown origin) expressed in mammalian cells assessed as reduction in Rac GEF activity pretreated for 1 hr followed by GST-fused Rac1 addition after 1 hr by ELISA; assay type: cell-based

T1 sequence (Q92608 whole entry): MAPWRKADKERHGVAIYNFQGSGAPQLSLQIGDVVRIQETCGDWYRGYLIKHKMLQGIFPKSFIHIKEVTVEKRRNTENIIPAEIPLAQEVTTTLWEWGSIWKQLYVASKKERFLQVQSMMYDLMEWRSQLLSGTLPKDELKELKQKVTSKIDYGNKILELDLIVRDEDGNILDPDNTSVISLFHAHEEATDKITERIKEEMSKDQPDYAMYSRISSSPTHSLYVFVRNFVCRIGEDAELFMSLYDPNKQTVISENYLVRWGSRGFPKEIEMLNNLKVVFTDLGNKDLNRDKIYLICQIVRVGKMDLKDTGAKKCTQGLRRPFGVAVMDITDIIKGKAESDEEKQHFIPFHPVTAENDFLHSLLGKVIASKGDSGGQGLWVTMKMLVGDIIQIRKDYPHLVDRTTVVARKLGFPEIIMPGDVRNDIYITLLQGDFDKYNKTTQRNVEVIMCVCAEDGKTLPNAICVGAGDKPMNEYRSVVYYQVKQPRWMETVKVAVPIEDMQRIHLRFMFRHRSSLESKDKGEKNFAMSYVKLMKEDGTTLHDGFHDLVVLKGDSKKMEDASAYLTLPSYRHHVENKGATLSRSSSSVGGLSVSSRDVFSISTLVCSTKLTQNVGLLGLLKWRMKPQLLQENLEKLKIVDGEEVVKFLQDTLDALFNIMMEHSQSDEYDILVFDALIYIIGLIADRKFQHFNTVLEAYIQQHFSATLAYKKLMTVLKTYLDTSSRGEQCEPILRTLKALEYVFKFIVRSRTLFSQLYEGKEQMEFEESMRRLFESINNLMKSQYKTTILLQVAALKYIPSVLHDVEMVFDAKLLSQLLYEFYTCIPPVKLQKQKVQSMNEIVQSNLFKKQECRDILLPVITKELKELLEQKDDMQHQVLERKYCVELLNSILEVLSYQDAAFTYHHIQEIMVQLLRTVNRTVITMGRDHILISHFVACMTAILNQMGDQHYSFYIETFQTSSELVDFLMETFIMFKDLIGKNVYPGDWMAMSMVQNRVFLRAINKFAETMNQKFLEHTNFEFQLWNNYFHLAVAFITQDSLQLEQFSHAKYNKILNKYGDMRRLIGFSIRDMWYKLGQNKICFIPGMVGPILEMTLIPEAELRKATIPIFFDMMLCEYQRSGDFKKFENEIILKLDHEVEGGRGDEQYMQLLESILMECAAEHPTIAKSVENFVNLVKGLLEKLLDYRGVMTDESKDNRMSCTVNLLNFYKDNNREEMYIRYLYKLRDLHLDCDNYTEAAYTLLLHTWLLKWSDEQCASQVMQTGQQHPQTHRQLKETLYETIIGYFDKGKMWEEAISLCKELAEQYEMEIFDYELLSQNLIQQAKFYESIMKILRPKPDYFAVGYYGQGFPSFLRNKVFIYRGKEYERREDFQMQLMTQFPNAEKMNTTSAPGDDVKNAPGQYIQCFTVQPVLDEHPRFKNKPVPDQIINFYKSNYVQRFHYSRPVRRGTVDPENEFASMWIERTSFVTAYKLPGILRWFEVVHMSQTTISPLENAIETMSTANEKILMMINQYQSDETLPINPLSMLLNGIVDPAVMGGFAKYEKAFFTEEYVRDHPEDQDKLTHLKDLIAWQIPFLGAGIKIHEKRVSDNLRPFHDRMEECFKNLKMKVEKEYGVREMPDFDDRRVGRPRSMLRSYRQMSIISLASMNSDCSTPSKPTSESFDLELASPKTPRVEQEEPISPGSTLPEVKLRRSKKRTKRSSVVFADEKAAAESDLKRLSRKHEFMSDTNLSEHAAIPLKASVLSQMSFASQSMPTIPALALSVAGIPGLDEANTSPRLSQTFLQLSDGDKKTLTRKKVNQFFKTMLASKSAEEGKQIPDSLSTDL

| IC50 [2] [nM] | IC50 [6] [nM] | IC50 [7] [nM] | IC50 [8] [nM] | SMILES | inhibition at 3.3 µM [1] [%] | inhibition at 10 µM [3] [%] | inhibition (Mino [4]) | inhibition (Mino [5]) |
| --- | --- | --- | --- | --- | --- | --- | --- | --- |
| 31 |  |  |  | CC(=O)N[C@H]1CSSC[C@@H](C(=O)N[C@@H](CCCNC(=N)N)C(=O)N[C@@H](CCCNC(=N)N)C(=O)N[C@@H](CCCNC(=N)N)C(=O)N[C@H](C(=O)N[C@@H](CCCNC(=N)N)C(=O)N[C@H](C(=O)N[C@@H](CC(C)C)C(=O)N[C@@H](CCCCN)C(=O)N[C@@H](CCCNC(=N)N)C(=O)N[C@@H](Cc2c[nH]c3ccccc23)C(=O)N[C@@H](CCCCN)C(=O)N[C@@H](CC(C)C)C(=O)N[C@@H](Cc2ccccc2)C(N)=O)C(C)C)[C@@H](C)O)NC(=O)[C@H](Cc2c[nH]c3ccccc23)NC(=O)[C@@H]2CCCN2C(=O)[C@H](Cc2ccc(O)cc2)NC(=O)CNC(=O)[C@H](Cc2cnc[nH]2)NC(=O)[C@H](Cc2ccc(O)cc2)NC(=O)[C@H](CCCCN)NC(=O)[C@H](C)NC(=O)[C@H](C(C)C)NC1=O (Ac-CVAKYHGYPWCRRRTRVLKRWKLF-NH2; disulfide 1-11) | > 89 | > 89 | Active |  |
| 8 |  |  |  | CC(=O)N[C@H]1CSSC[C@@H](C(=O)N[C@@H](CCCNC(=N)N)C(=O)N[C@@H](CCCNC(=N)N)C(=O)N[C@@H](CCCNC(=N)N)C(=O)N[C@@H](CCCNC(=N)N)C(=O)N[C@@H](CCCNC(=N)N)C(=O)N[C@@H](CCCNC(=N)N)C(=O)N[C@@H](CCCNC(=N)N)C(=O)N[C@@H](CCCNC(=N)N)C(N)=O)NC(=O)[C@H](Cc2c[nH]c3ccccc23)NC(=O)[C@@H]2CCCN2C(=O)[C@H](Cc2ccc(O)cc2)NC(=O)CNC(=O)[C@H](Cc2cnc[nH]2)NC(=O)[C@H](Cc2ccc(O)cc2)NC(=O)[C@H](CCCCN)NC(=O)[C@H](C)NC(=O)[C@H](C(C)C)NC1=O (Ac-CVAKYHGYPWCRRRRRRRR-NH2; disulfide 1-11) | > 89 | > 89 | Active |  |

Further lines, the compound ahead of its results:

| SMILES | IC50 [2] [nM] | IC50 [6] [nM] | IC50 [7] [nM] | IC50 [8] [nM] | inhibition at 3.3 µM [1] [%] | inhibition at 10 µM [3] [%] | inhibition (Mino [4]) | inhibition (Mino [5]) |
| --- | --- | --- | --- | --- | --- | --- | --- | --- |
| CC(=O)N[C@H]1CSSC[C@@H](C(=O)N[C@@H](CCCNC(=N)N)C(=O)N[C@@H](CCCNC(=N)N)C(=O)N[C@@H](CCCNC(=N)N)C(N)=O)NC(=O)[C@H](Cc2c[nH]c3ccccc23)NC(=O)[C@@H]2CCCN2C(=O)[C@H](Cc2ccc(O)cc2)NC(=O)CNC(=O)[C@H](Cc2cnc[nH]2)NC(=O)[C@H](Cc2ccc(O)cc2)NC(=O)[C@H](CCCCN)NC(=O)[C@H](C)NC(=O)[C@H](C(C)C)NC1=O (Ac-CVAKYHGYPWCRRR-NH2; disulfide 1-11) | 11 |  |  |  |  |  | Active | Active |
| CC(C)C[C@H](N)C(=O)N[C@@H](CC(N)=O)C(=O)N[C@@H](CCCNC(=N)N)C(=O)N[C@H]1CSSC[C@@H](C(=O)N[C@@H](CCCNC(=N)N)C(=O)N[C@@H](CCCNC(=N)N)C(=O)N[C@@H](CCCNC(=N)N)C(=O)O)NC(=O)[C@H](Cc2c[nH]c3ccccc23)NC(=O)[C@@H]2CCCN2C(=O)[C@H](Cc2ccc(O)cc2)NC(=O)CNC(=O)[C@H](Cc2cnc[nH]2)NC(=O)[C@H](Cc2ccc(O)cc2)NC(=O)[C@H](CCCCN)NC(=O)[C@H](C)NC(=O)[C@H](C(C)C)NC1=O (H-LNRCVAKYHGYPWCRRR-OH; disulfide 4-14) |  | 6 | 35 |  |  |  |  |  |
| O=C1NN(c2ccccc2)C(=O)/C1=C/C=C/c1ccccc1Cl |  |  |  | 22800 |  |  |  |  |
